# Reference: patent publication US20080004253A1, “Thiazolopyrimidine modulators of TRPV1” (priority 2006, published 2008)
# Columns and labels:
# rat TRPV1 = biological target: T1, rat TRPV1 (Rattus norvegicus, UniProt O35433); experiment: Functional assay: block of capsaicin-induced Ca2+ influx, rat assay (rTRPV1/HEK293, FLIPR); type: cell-based; conditions: rTRPV1/HEK293 cells, capsaicin challenge, Fluo-3 fluorescence; mean; > value = solubility limit in assay medium
# T1 construct: expressed in transfected cells; host or cells: HEK293 (rTRPV1/HEK293), geneticin selection
# T1 sequence (O35433 whole entry): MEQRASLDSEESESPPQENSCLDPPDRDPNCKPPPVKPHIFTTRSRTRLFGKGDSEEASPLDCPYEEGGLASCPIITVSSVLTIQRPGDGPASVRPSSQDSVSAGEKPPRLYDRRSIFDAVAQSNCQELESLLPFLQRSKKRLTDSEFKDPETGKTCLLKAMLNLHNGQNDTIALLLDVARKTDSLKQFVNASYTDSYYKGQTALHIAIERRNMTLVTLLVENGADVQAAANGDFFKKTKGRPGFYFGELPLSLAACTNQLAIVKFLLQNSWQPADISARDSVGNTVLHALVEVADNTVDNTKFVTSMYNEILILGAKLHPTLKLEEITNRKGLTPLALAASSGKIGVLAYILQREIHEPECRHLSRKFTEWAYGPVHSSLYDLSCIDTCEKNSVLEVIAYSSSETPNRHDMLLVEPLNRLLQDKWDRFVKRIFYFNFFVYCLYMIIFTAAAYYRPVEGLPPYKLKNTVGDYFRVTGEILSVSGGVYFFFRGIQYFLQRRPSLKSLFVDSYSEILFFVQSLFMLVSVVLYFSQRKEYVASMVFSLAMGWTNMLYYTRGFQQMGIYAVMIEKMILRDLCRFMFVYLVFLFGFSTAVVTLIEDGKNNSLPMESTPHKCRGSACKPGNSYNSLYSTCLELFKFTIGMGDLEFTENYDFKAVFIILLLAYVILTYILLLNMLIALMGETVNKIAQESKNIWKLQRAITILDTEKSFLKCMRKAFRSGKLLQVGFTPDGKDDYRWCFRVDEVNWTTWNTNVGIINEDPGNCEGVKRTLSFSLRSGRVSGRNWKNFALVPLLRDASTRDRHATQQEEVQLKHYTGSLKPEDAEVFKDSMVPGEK
# Method: (§1) Functional assay: block of capsaicin-induced Ca^2+ influx
# (§2) HEK293 cells were transfected with human TRPV1 cloned in pcDNA3.1zeo(+) using the Effectene non-liposomal lipid based transfection kit (Qiagen) (hTRPV1/HEK293). hTRPV1/HEK293 cells were routinely grown as monolayers under selection in zeocin (200 μg/mL; Invitrogen) in Dulbecco's Modified Eagle Medium (DMEM, Gibco BRL) supplemented with 10% fetal bovine serum, and penicillin/streptomycin (50 units/mL) in 5% CO2 at 37° C. Cells were passaged frequently, every 3-5 days, to avoid overgrowth, depletion of essential medium components, or acidic medium exposure. Cells were passaged using a brief wash in 0.05% trypsin with 1 mM EDTA, followed by dissociation in divalent-free phosphate-buffered saline (Hyclone #SH30028.02). […] The assay buffer was composed of 130 mM NaCl, 2 mM KCl, 2 mM MgCl2, 10 mM HEPES, 5 mM glucose, and either 2 mM or 20 μM CaCl2. On the day of the experiment, the culture medium was replaced with 2 mM calcium assay buffer using an automated plate washer (ELx405; Biotek, VT). […] After loading the cells, the dye solution was replaced with 50 μL/well of 20 μM calcium assay buffer using the ELx405 plate washer. Test compounds (50 μL/well) were added to the plate and incubated for 30 min. […] The IC50 values were determined. […] The contents of the wells were mixed 3 times (40 μL mix volume) immediately after the additions were made. Concentration-dependence of block was determined by exposing each well of cells in duplicate rows of a 96-well plate to a serial dilution of test compound. The concentration series usually started at 10 μM with a three-fold serial decrement in concentration. The magnitude of the capsaicin response was determined by measuring the change in fluo3 fluorescence before and 100 seconds after the addition of the agonist. Data were analyzed using a non-linear regression program (Origin; OriginLab, MA).
# This assay was performed similarly to the human assay described above, but using HEK293 cells transfected with rat TRPV1 (rTRPV1/HEK293).
# (§3) IC50 values shown are the average (mean) of the results obtained. […] Compounds were tested in either the free base or trifluoroacetic acid salt form.
# human TRPV1 = biological target: T2, human TRPV1 (Homo sapiens, UniProt Q8NER1); experiment: Functional assay: block of capsaicin-induced Ca2+ influx, human assay (hTRPV1/HEK293, FLIPR); type: cell-based; conditions: hTRPV1/HEK293 cells, 150 nM capsaicin challenge, Fluo-3 fluorescence; mean; > value = solubility limit in assay medium
# T2 construct: expressed in transfected cells; host or cells: HEK293 (hTRPV1/HEK293), zeocin selection
# T2 sequence (Q8NER1 whole entry): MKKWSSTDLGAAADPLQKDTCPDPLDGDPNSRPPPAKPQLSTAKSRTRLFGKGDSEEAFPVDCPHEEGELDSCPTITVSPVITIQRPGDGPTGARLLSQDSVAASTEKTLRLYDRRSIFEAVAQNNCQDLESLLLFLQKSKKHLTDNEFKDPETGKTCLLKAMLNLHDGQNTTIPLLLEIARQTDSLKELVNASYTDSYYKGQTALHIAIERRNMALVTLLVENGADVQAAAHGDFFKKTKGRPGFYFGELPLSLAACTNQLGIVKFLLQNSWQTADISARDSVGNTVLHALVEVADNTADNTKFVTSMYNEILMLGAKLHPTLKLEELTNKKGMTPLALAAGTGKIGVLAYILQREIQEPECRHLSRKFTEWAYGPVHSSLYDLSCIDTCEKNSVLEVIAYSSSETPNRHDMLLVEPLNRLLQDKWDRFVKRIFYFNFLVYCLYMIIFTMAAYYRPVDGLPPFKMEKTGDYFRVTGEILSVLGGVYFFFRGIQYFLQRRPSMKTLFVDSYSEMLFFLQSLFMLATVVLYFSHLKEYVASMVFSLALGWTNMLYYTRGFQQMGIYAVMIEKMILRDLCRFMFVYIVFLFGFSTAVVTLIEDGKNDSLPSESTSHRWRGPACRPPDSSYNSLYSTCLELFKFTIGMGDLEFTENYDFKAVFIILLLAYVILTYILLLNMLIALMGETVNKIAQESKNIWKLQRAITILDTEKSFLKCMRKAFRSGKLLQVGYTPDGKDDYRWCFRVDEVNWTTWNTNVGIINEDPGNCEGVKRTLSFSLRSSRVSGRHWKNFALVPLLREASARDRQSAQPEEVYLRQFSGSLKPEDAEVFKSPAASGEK
# Method: as §1, §2, §3
Compound,IC50 (rat TRPV1) [nM],IC50 (human TRPV1) [nM]
"O=S(=O)(c1ccc(Nc2ncnc3sc(Nc4ccccc4Cl)nc23)cc1)C(F)(F)F [Example 203, N^2-(2-Chloro-phenyl)-N^7-(4-trifluoromethanesulfonyl-phenyl)-thiazolo[5,4-d]pyrimidine-2,7-diamine]",76,48
"Cc1cccnc1Nc1nc2c(Nc3ccc(C(F)(F)F)cc3)ncnc2s1 [Example 213, N^2-(3-Methyl-pyridin-2-yl)-N^7-(4-trifluoromethyl-phenyl)-thiazolo[5,4-d]pyrimidine-2,7-diamine]",≥ 6670,≥ 6670
"COc1cc(CNc2ncnc3sc(Nc4c(C)cccc4C)nc23)ccc1O [Example 38, 4-{[2-(2,6-Dimethyl-phenylamino)-thiazolo[5,4-d]pyrimidin-7-ylamino]-methyl}-2-methoxy-phenol]",7130,> 20000
"Cc1nc(N(C)c2ccc(C(F)(F)F)cc2)c2nc(Nc3c(Cl)cccc3Cl)sc2n1 [Example 9, N^2-(2,6-Dichloro-phenyl)-5,N^7-dimethyl-N^7-(4-trifluoromethyl-phenyl)-thiazolo[5,4-d]pyrimidine-2,7-diamine]",> 20000,> 20000
"CS(=O)(=O)c1nc(Nc2ccc(C(F)(F)F)cc2)c2nc(Nc3c(Cl)cccc3Cl)sc2n1 [Example 53, N^2-(2,6-Dichloro-phenyl)-5-methanesulfonyl-N^7-(4-trifluoromethyl-phenyl)-thiazolo[5,4-d]pyrimidine-2,7-diamine]",93,196
"COc1ccc(Nc2ncnc3sc(Nc4c(C)cccc4C)nc23)cc1C(F)(F)F [Example 168, N^2-(2,6-Dimethyl-phenyl)-N^7-(4-methoxy-3-trifluoromethyl-phenyl)-thiazolo[5,4-d]pyrimidine-2,7-diamine]",> 6670,> 6670
"FC(F)(F)c1ccc(Nc2ncnc3sc(Nc4c(Cl)cncc4Cl)nc23)cc1 [Example 72, N^2-(3,5-Dichloro-pyridin-4-yl)-N^7-(4-trifluoromethyl-phenyl)-thiazolo[5,4-d]pyrimidine-2,7-diamine]",627,740
"Cc1nc(Nc2cccnc2)c2nc(Nc3c(Cl)cccc3Cl)sc2n1 [Example 166, N^2-(2,6-Dichloro-phenyl)-5-methyl-N^7-pyridin-3-yl-thiazolo[5,4-d]pyrimidine-2,7-diamine]",> 6670,> 6670
"Cc1cccc(C)c1Nc1nc2c(Nc3ccc(C(C)O)cc3)ncnc2s1 (racemic) [Example 140, (racemic)-1-{4-[2-(2,6-Dimethyl-phenylamino)-thiazolo[5,4-d]pyrimidin-7-ylamino]-phenyl}-ethanol]",185,324
"CC(=O)c1ccc(Nc2ncnc3sc(Nc4c(C)cccc4C)nc23)cc1 [Example 128, 1-{4-[2-(2,6-Dimethyl-phenylamino)-thiazolo[5,4-d]pyrimidin-7-ylamino]-phenyl}-ethanone]",121,138

# The next compounds have a lower IC50 (rat TRPV1) than those just listed; values first:
IC50 (rat TRPV1) [nM],IC50 (human TRPV1) [nM],Compound
61,90,"NC(=O)c1cc(Cl)c(Nc2nc3c(Nc4ccc(C(F)(F)F)cc4)ncnc3s2)c(Cl)c1 [Example 235, 3,5-Dichloro-4-[7-(4-trifluoromethyl-phenylamino)-thiazolo[5,4-d]pyrimidin-2-ylamino]-benzamide]"
59,97,"Cc1cccc(C)c1Nc1nc2c(Nc3ccc(Br)cc3)ncnc2s1 [Example 123, N^7-(4-Bromo-phenyl)-N^2-(2,6-dimethyl-phenyl)-thiazolo[5,4-d]pyrimidine-2,7-diamine]"
51,56,"Cc1cccc(C)c1Nc1nc2c(Nc3ccc(Cl)nc3)ncnc2s1 [Example 119, N^7-(6-Chloro-pyridin-3-yl)-N^2-(2,6-dimethyl-phenyl)-thiazolo[5,4-d]pyrimidine-2,7-diamine]"
48,15,"FC(F)(F)c1ccc(Nc2nc(N3CCCC3)nc3sc(Nc4c(Cl)cccc4Cl)nc23)cc1 [Example 58, N^2-(2,6-Dichloro-phenyl)-5-pyrrolidin-1-yl-N^7-(4-trifluoromethyl-phenyl)-thiazolo[5,4-d]pyrimidine-2,7-diamine]"
48,225,"Cc1cccc(C)c1Nc1nc2c(Nc3ccc(I)cc3)ncnc2s1 [Example 137, N^2-(2,6-Dimethyl-phenyl)-N^7-(4-iodo-phenyl)-thiazolo[5,4-d]pyrimidine-2,7-diamine]"
34,113,"Cc1cccc(C)c1Nc1nc2c(Nc3ccc(C(F)(F)F)c(Cl)c3)ncnc2s1 [Example 13, N^7-(3-Chloro-4-trifluoromethyl-phenyl)-N^2-(2,6-dimethyl-phenyl)-thiazolo[5,4-d]pyrimidine-2,7-diamine]"
18,28,"O=S(=O)(c1ccc(Nc2ncnc3sc(Nc4ccccc4Cl)nc23)cc1)N1CCCC1 [Example 109, N^2-(2-Chloro-phenyl)-N^7-[4-(pyrrolidine-1-sulfonyl)-phenyl]-thiazolo[5,4-d]pyrimidine-2,7-diamine]"
15,7,"Cc1nc(Nc2ccc(S(=O)(=O)C(F)(F)F)cc2)c2nc(Nc3c(C)cccc3C)sc2n1 [Example 90, N^2-(2,6-Dimethyl-phenyl)-5-methyl-N^7-(4-trifluoromethanesulfonyl-phenyl)-thiazolo[5,4-d]pyrimidine-2,7-diamine]"
9,30,"FC(F)(F)c1ccc(Nc2ncnc3sc(Nc4c(Cl)cccc4C(F)(F)F)nc23)cc1 [Example 18, N^2-(2-Chloro-6-trifluoromethyl-phenyl)-N^7-(4-trifluoromethyl-phenyl)-thiazolo[5,4-d]pyrimidine-2,7-diamine]"
7,10,"Cc1nc(Nc2ccc(S(C)(=O)=O)cc2)c2nc(Nc3c(C)cccc3C)sc2n1 [Example 95, N^2-(2,6-Dimethyl-phenyl)-N^7-(4-methanesulfonyl-phenyl)-5-methyl-thiazolo[5,4-d]pyrimidine-2,7-diamine]"
4,7,"CN1CCN(S(=O)(=O)c2ccc(Nc3ncnc4sc(Nc5c(Cl)cccc5Cl)nc34)cc2)CC1 [Example 88, N^2-(2,6-Dichloro-phenyl)-N^7-[4-(4-methyl-piperazine-1-sulfonyl)-phenyl]-thiazolo[5,4-d]pyrimidine-2,7-diamine]"
4,20,"FC(F)(F)c1ccc(Nc2nc(NCC3CC3)nc3sc(Nc4c(Cl)cccc4Cl)nc23)cc1 [Example 62, N^5-Cyclopropylmethyl-N^2-(2,6-dichloro-phenyl)-N^7-(4-trifluoromethyl-phenyl)-thiazolo[5,4-d]pyrimidine-2,5,7-triamine]"
2,1,"Cc1nc(Nc2ccc(S(=O)(=O)C(F)(F)F)cc2)c2nc(Nc3c(Cl)cccc3Cl)sc2n1 [Example 77, N^2-(2,6-Dichloro-phenyl)-5-methyl-N^7-(4-trifluoromethanesulfonyl-phenyl)-thiazolo[5,4-d]pyrimidine-2,7-diamine]"
1,2,"Cc1nc(Nc2ccc(S(C)(=O)=O)cc2)c2nc(Nc3c(Cl)cccc3Cl)sc2n1 [Example 78, N^2-(2,6-Dichloro-phenyl)-N^7-(4-methanesulfonyl-phenyl)-5-methyl-thiazolo[5,4-d]pyrimidine-2,7-diamine]"
